Source: US20220071970A1, “QUINUCLIDINE-3-ONE DERIVATIVES AND THEIR USE IN CANCER TREATMENT” (Aprea Therapeutics AB, priority 2018, published 2022)
pIC50: −log10 of the molar value.

system: not listed separately; assay: Stability study in pH 4 buffer at 25° C.; type: physicochemical; details: 1st order kinetics
Procedure: Chemical stability at low pH was investigated for selected compounds. Compounds that are highly unstable may not be suitable as drug candidates, for example due to potential difficulties in achieving and maintaining a stable and therapeutically effective formulation. For instance, compounds intended for oral administration must be chemically stable at the low pH observed in the stomach in order for this to be an acceptable route.
A pH 4 buffer was prepared by mixing 4.1 mL of 0.2 M acetic acid (aq.) with 0.9 mL of a 0.2 M sodium acetate (aq.) and then diluting to 10 mL with distilled water. The pH was determined by pH meter to 4.04.
Benzylpiperidine-4-ol was used as internal standard. A 1 mg/mL stock solution was prepared by dissolving 3.5 mg benzylpiperidine-4-ol in 3.5 mL of water. 500 μL of the stock solution were added to pH 4 buffer (5 mL) and the mixture was shaken.
A 1 mg/mL solution in acetonitrile was prepared for each test compound. Two drops of water were added to ca. 1 mL of acetonitrile in order to completely dissolve Example 2.
To 400 μL of pH 4 buffer with internal standard were added 100 μL of 1 mg/mL test compound solution. The solutions were stored at 25° C. and analyzed by LCMS directly and at different time points up to 48 hours. The [M+H]^+ ion for parent compound (test compound) and the internal standard (m/z 192) were extracted and integrated. The area for the parent compound was normalized to the area of the internal standard for each time point.
The half-life was calculated based on 1st order kinetics (t %=ln2/k). The rate constant (k) was obtained by plotting In[normalized peak area] against time.
Results for half-life and percent parent compound remaining at 48 h for selected examples and a comparative example are shown in Table 5.

Row | SMILES | Half-life
1 | O=C1C2CCN(CC2)C1Cn1cc(F)c(=O)[nH]c1=O (stereo not shown) [Comparative example 3, 5-fluoro-1-((3-oxoquinuclidin-2-yl)methyl)pyrimidine-2,4(H,3H)-dione, reference compound] | 15 h

same assay, conditions: LCMS, normalized to internal standard

Row | SMILES | % Parent remaining at 48 h
2 | O=C1C2CCN(CC2)C1Cn1cc(F)c(=O)[nH]c1=O (stereo not shown) [Comparative example 3, 5-fluoro-1-((3-oxoquinuclidin-2-yl)methyl)pyrimidine-2,4(H,3H)-dione, reference compound] | 18%
3 | O=C1C2CCN(CC2)C1Cn1ccc(=O)[nH]c1=O (racemic) [Example 23, 1-((3-oxoquinuclidin-2-yl)methyl)pyrimidine-2,4(1H,3H)-dione] | 59%
4 | Cc1cn(CC2C(=O)C3CCN2CC3)c(=O)n(CC2C(=O)C3CCN2CC3)c1=O (stereo not shown) [Example 26, 5-methyl-1,3-bis((3-oxoquinuclidin-2-yl)methyl)-pyrimidine-2,4(1H,3H)-dione] | 73%
5 | Cc1cn(CC2C(=O)C3CCN2CC3)c(=O)[nH]c1=O (racemic) [Example 24, 5-methyl-1-((3-oxoquinuclidin-2-yl)methyl)pyrimidine-2,4(1H,3H)-dione] | >95%

same assay, conditions: pH 4 acetate buffer, 1st order kinetics

Row | SMILES | half-life at 0.2 mg/mL
6 | O=C1C2CCN(CC2)C1Cn1ccc(=O)[nH]c1=O (racemic) [Example 23, 1-((3-oxoquinuclidin-2-yl)methyl)pyrimidine-2,4(1H,3H)-dione] | 67 h
7 | Cc1cn(CC2C(=O)C3CCN2CC3)c(=O)n(CC2C(=O)C3CCN2CC3)c1=O (stereo not shown) [Example 26, 5-methyl-1,3-bis((3-oxoquinuclidin-2-yl)methyl)-pyrimidine-2,4(1H,3H)-dione] | 70 h
8 | Cc1cn(CC2C(=O)C3CCN2CC3)c(=O)[nH]c1=O (racemic) [Example 24, 5-methyl-1-((3-oxoquinuclidin-2-yl)methyl)pyrimidine-2,4(1H,3H)-dione] | > 630 h

system: SaOS-2 His273 mtp53 human osteosarcoma cell line; assay: In vitro efficacy study using the SaOS-2 His273 protocol (CellTiter-Glo viability, 72 h); type: cell-based; details: SAOS-2, 72 h, read-out: SaOS-2 His273 IC50
Procedure: SaOS-2 His273 mtp53 is a human osteosarcoma cell line which has been genetically engineered at OnkPat CCK to express His273 mutated p53.
3000 cells/well (50 μl) were seeded into masked (black or white with clear bottom) 96-well cell culture plates using Iscove's Modified Dulbecco's Medium supplemented with 10% heat inactivated (56° C. for 60 min) fetal calf serum. The plates were then incubated for 4 hours, allowing the cells to attach. The test compounds were dissolved in DMSO or water to a concentration of 0.01 M and then further diluted to desired concentrations using the cell medium. 50 μl of freshly diluted test compound from fresh stock was added to the wells. The plates were then incubated for 72 hours.
For viability detection, CellTiter-Glo® Luminescent Cell Viability Assay (CTG) was used. CTG is a homogeneous “add-mix-measure” format method of determining the number of viable cells in culture based on quantitation of the ATP present, an indicator of metabolically active cells. The luminescence was measured using the PerkinElmer Victorx4 instrument.
The average of the signal values for the untreated cells was calculated for each plate. The % of growth suppression was calculated as:
100−((Signal sample/Signal untreated cells)×100).
The results of the SaOs-2 His273 analyses were expressed as IC50 values, i.e. concentration that suppresses growth of at least 50% of the cells. The IC50 values of various compounds according to the invention and of some comparative compounds are shown in Table 1, Table 2, Table 3 and Table 4.

Row | SMILES | pIC50
9 | O=C1C2CCN(CC2)C1CNC(=O)C(Cl)(Cl)Cl (racemic) [Example 2, 2,2,2-trichloro-N-((3-oxoquinuclidin-2-yl)methyl)acetamide] | 5.16
10 | O=C1C2CCN(CC2)C1CNS(=O)(=O)C1CC1 (racemic) [Example 19, N-((3-oxoquinuclidin-2-yl)methyl)cyclopropane-sulfonamide] | 4.92
11 | O=C1C2CCN(CC2)C1CNS(=O)(=O)c1ccccc1 (racemic) [Example 10, N-((3-oxoquinuclidin-2-yl)methyl)benzenesulfon-amide] | 5.15
12 | CCN(CC1C(=O)C2CCN1CC2)C(=O)C(Cl)(Cl)Cl (racemic) [Example 1, 2,2,2-trichloro-N-ethyl-N-((3-oxoquinuclidin-2-yl)methyl)acetamide] | 5.49
13 | CS(=O)(=O)N(CC(N)=O)CC1C(=O)C2CCN1CC2 (racemic) [Example 11, 2-(N-((3-oxoquinuclidin-2-yl)methyl)methylsulfon-amido)acetamide] | 5.39
14 | CS(=O)(=O)N(CC1C(=O)C2CCN1CC2)CC1C(=O)C2CCN1CC2 (stereo not shown) [Example 17, N,N-bis((3-oxoquinuclidin-2-yl)methyl)methanesulfonamide] | 5.54
15 | O=C1C2CCN(CC2)C1Cn1cncn1 (racemic) [Example 30, 2-((1H-1,2,4-triazol-1-yl)methyl)quinuclidin-3-one] | 4.59
16 | CC(=O)NCC1C(=O)C2CCN1CC2 (racemic) [compound 1, N-((3-oxoquinuclidin-2-yl)methyl)acetamide, reference compound] | < 4.40
17 | O=C1C2CCN(CC2)C1CNS(=O)(=O)c1cccnc1 (racemic) [Example 6, N-((3-oxoquinuclidin-2-yl)methyl)pyridine-3-sulfonamide] | 5.14
18 | O=C1C2CCN(CC2)C1Cn1cnc(Cl)n1 (racemic) [Example 28, 2-((3-chloro-1H-1,2,4-triazol-1-yl)methyl)quinuclidin-3-one] | 5.51
19 | O=C1C2CCN(CC2)C1Cc1cnn[nH]1 (racemic) [Comparative example 5, 2-((1H-1,2,3-triazol-5-yl)methyl)quinuclidin-3-one, reference compound] | < 4.40
20 | CNC(=O)c1ncn(CC2C(=O)C3CCN2CC3)n1 (racemic) [Example 27, N-methyl-1-((3-oxoquinuclidin-2-yl)methyl)-1H-1,2,4-triazole-3-carboxamide] | 5.30
21 | CS(=O)(=O)N(CC1C(=O)C2CCN1CC2)C1CC1 (racemic) [Example 21, N-cyclopropyl-N-((3-oxoquinuclidin-2-yl)methyl)-methanesulfonamide] | 5.74
22 | CCN(CC1C(=O)C2CCN1CC2)C(=O)C(F)(F)F (racemic) [Example 3, N-ethyl-2,2,2-trifluoro-N-((3-oxoquinuclidin-2-yl)methyl)acetamide] | 5.38
23 | O=C1C2CCN(CC2)C1CNS(=O)(=O)C(F)(F)F (racemic) [Example 16, 1,1,1-trifluoro-N-((3-oxoquinuclidin-2-yl)methyl)methanesulfonamide] | 5.54
24 | O=C(NCC1C(=O)C2CCN1CC2)c1cccnc1 (racemic) [compound 2, N-((3-oxoquinuclidin-2-yl)methyl)nicotinamide, reference compound] | < 4.40

Row | SMILES | pIC50
25 | O=C1C2CCN(CC2)C1CNS(=O)(=O)c1ccccn1 (racemic) [Example 14, N-((3-oxoquinuclidin-2-yl)methyl)pyridine-2-sulfonamide] | 5.22
26 | CS(=O)(=O)NCC1C(=O)C2CCN1CC2 (racemic) [Example 9, N-((3-oxoquinuclidin-2-yl)methyl)methanesulfon-amide] | 5.10
27 | Cc1cn(CC2C(=O)C3CCN2CC3)c(=O)n(C(=O)OC(C)(C)C)c1=O (racemic) [Example 25, tert-butyl 5-methyl-2,6-dioxo-3-((3-oxoquinuclidin-2-yl)methyl)-3,6-dihydropyrimidine-1(2H)-carboxylate] | 5.28
28 | O=C(NCC1C(=O)C2CCN1CC2)C(F)F (racemic) [Example 5, 2,2-difluoro-N-((3-oxoquinuclidin-2-yl)methyl)acetamide] | 4.89
29 | CCN(CC1C(=O)C2CCN1CC2)S(=O)(=O)C(F)(F)F (racemic) [Example 15, N-ethyl-1,1,1-trifluoro-N-((3-oxoquinuclidin-2-yl)-methyl)methanesulfonamide] | 5.46
30 | CCN(CC1C(=O)C2CCN1CC2)S(C)(=O)=O (racemic) [Example 8, N-ethyl-N-((3-oxoquinuclidin-2-yl)methyl)methane-sulfonamide] | 5.22
31 | CC(C)S(=O)(=O)NCC1C(=O)C2CCN1CC2 (racemic) [Example 18, N-((3-oxoquinuclidin-2-yl)methyl)propane-2-sulfonamide] | 4.96
32 | O=C1C2CCN(CC2)C1CNS(=O)(=O)c1ccncc1 (racemic) [Example 13, N-((3-oxoquinuclidin-2-yl)methyl)pyridine-4-sulfon-amide] | 5.20
33 | CC1(S(=O)(=O)NCC2C(=O)C3CCN2CC3)CC1 (racemic) [Example 20, 1-methyl-N-((3-oxoquinuclidin-2-yl)methyl)cyclo-propane-1-sulfonamide] | 5.13
34 | N#Cc1ncn(CC2C(=O)C3CCN2CC3)n1 (racemic) [Example 31, 1-((3-oxoquinuclidin-2-yl)methyl)-1H-1,2,4-triazole-3-carbonitrile] | 5.62
35 | CN(C)C(=O)c1ncn(CC2C(=O)C3CCN2CC3)n1 (single isomer, unassigned) [Example 29, N,N-dimethyl-1-((3-oxoquinuclidin-2-yl)methyl)-1H-1,2,4-triazole-3-carboxamide] | 5.06
36 | O=C1C2CCN(CC2)C1Cn1cccn1 (racemic) [compound 4, 2-((1H-pyrazol-1-yl)methyl)quinuclidin-3-one, reference compound] | < 4.40
37 | O=C1C2CCN(CC2)C1CNS(=O)(=O)c1ccc(F)cc1 (racemic) [Example 7, 4-fluoro-N-((3-oxoquinuclidin-2-yl)methyl)benzenesulfonamide] | 5.14
38 | CS(=O)(=O)N(CC1C(=O)C2CCN1CC2)c1ccccc1 (racemic) [Example 22, N-((3-oxoquinuclidin-2-yl)methyl)-N-phenyl-methanesulfonamide] | 5.80
39 | NC(=O)c1ncn(CC2C(=O)C3CCN2CC3)n1 (racemic) [Example 32, 1-((3-oxoquinuclidin-2-yl)methyl)-1H-1,2,4-triazole-3-carboxamide] | 5.00
40 | CS(=O)(=O)N(CC(=O)O)CC1C(=O)C2CCN1CC2 (racemic) [Example 12, N-(methylsulfonyl)-N-((3-oxoquinuclidin-2-yl)-methyl)qlycine] | 5.22

same assay, conditions: SAOS-2, growth suppression, 72 hours incubation, CellTiter-Glo, read-out: SaOS-2 His273 IC50

Row | SMILES | pIC50
41 | O=C1C2CCN(CC2)C1Cn1ccc(=O)[nH]c1=O (racemic) [Example 23, 1-((3-oxoquinuclidin-2-yl)methyl)pyrimidine-2,4(1H,3H)-dione] | 5.49
42 | Cc1cn(CC2C(=O)C3CCN2CC3)c(=O)n(CC2C(=O)C3CCN2CC3)c1=O (stereo not shown) [Example 26, 5-methyl-1,3-bis((3-oxoquinuclidin-2-yl)methyl)-pyrimidine-2,4(1H,3H)-dione] | 5.40
43 | Cc1cn(CC2C(=O)C3CCN2CC3)c(=O)[nH]c1=O (racemic) [Example 24, 5-methyl-1-((3-oxoquinuclidin-2-yl)methyl)pyrimidine-2,4(1H,3H)-dione] | 5.19
